# Test results: US20150352075A1, “Treatment of Alzheimer's and Cognitive Impairment With Andrographolides” (INNOBIOSCIENCE, LLC, priority 2013, published 2015)
# B1: Wnt-3a: conditioned medium of Wnt3a ligand, the canonical Wnt ligand (protein, UniProt P56704 19-352, looked up)
# Protein Wnt-3a: SYPIWWSLAVGPQYSSLGSQPILCASIPGLVPKQLRFCRNYVEIMPSVAEGIKIGIQECQHQFRGRRWNCTTVHDSLAIFGPVLDKATRESAFVHAIASAGVAFAVTRSCAEGTAAICGCSSRHQGSPGKGWKWGGCSEDIEFGGMVSREFADARENRPDARSAMNRHNNEAGRQAIASHMHLKCKCHGLSGSCEVKTCWWSQPDFRAIGDFLKDKYDSASEMVVEKHRESRGWVETLRPRYTYFKVPTERDLVYYEASPNFCEPNPETGSFGTRDRTCNVSSHGIDGCDLLCCGRGHNARAERRREKCRCVFHWCCYVSCQECTRVYDVHTCK
# modifications: conditioned medium
# Experiments:
# HEK293T cells = assay: TOPflash/FOPflash luciferase reporter assay; type: cell-based
# Protocol: 150,000 HEK293T cells were seeded in triplicate per condition and kept for 24 hours at 37° C. with 5% CO2. The cultures were transfected with TOPflash or FOPflash (400 ng), which are firefly-luciferase reporter DNA constructs (Milipore), using LipofectAMINE 2000 (Invitrogen). To control for transfection pRL-TK (10 ng) was included in all transfections. […] Values were normalized by the renilla value from the same well. To statistically compare treatments ANOVA was used.
# [1] = tested on: Wnt/β-catenin pathway in hippocampal slices; assay: Wnt pathway mechanism in hippocampal slices (sFRP, Dkk-1, Dvl-3 mobility shift, time course); type: cell-based, mice; conditions: for time at which total levels of β-catenin increased: slices from 2 month-old wild-type mice, 5 μM ANDRO, Wnt3a conditioned medium or 10 μM 6-B10
# Protocol: Slice preparation. […] Transverse slices (250-300 μm) from the dorsal hippocampus were cut under oxygen-saturated cold artificial cerebrospinal fluid using a Vibroslice microtome (VSL, World Precision Instruments, Inc WPI, Sarasota, Fla.). After obtained, slices were incubated in ACSF for at least than one hour at room temperature, in order to stabilize activity. In every moment during dissection, slicing and experimentation slices were oxygenated with 95% oxygen-5% carbon dioxide.
# Briefly, tissues were homogenized in RIPA buffer (10 mM Tris-Cl, pH 7.4, EDTA 5 mM, 1% NP-40, 1% sodium deoxycholate, and 1% SDS) supplemented with a protease inhibitor mixture (1 mM PMSF, 2 μg/mL aprotinin, 1 μg/mL pepstatin and 10 μg/mL benzamidine) and phosphatase inhibitors (25 mMNaF, 100 mM Na3VO4, 1 mM EDTA and 30 μM Na4P207) using a Potter homogenizator and then passed sequentially through different caliber syringes. […] Protein concentration was determined using the BCA Protein Assay Kit (Pierce). Samples were resolved by […] 10% SDS-PAGE and transferred to a PVDF membrane. The reactions were followed by incubation with anti-mouse, anti-goat or anti-rabbit IgG peroxidase conjugated (Pierce, Rockford, Ill.) and developed using an ECL kit (Western Lightning Plus ECL, PerkinElmer).
# [2] = tested on: Wnt target genes in cultured hippocampal neurons; assay: PCR array of Wnt target genes in hippocampal neurons; type: cell-based, rat
# Protocol: Primary culture of rat hippocampal neurons. […] PCR-ARRAY. RNA from hippocampal neurons was extracted using Trizol. Quantification and purity of RNA preparations were checked by absorbance using Nanodrop ND-2000. Only preparations with a 260/280 nm ratio ≧1.8, a 260/230 nm ratio ≧1.7 and no sign of RNA degradations, verified by agarose gel electrophoresis with Gel Red™ were used. Genomic DNA was degraded. Using RT2First-Strand cDNA Synthesis kit (SuperArray), 1 ng total RNA was reverse transcribed and then real-time PCR was performed by adding cDNA directly to PCR Master Mix, containing SYBR Green and ROX. The mixtures were then aliquoted into a 96-well PCR array plates, which profiles the expression of 84 Wnt target genes from rat. The PCR was run on ABI StepOnePlus, with 1 cycle of 10 min at 95° C. followed by 40 cycles of 15s at 95° C. and 1 min at 60° C. […] Treatment of neuronal cultures. Primary hippocampal cultures of neurons 14 DIV were washed twice in neurobasal medium and maintained for 1 hour. Next ANDRO (10 μM) and 6-BIO (10 μM) were added to different time periods.
# [3] = tested on: CA3-CA1 connections in hippocampal slices; assay: Electrophysiology (fEPSP, PPF, LTP, LTD) in Wt hippocampal slices; type: cell-based, mice; conditions: hippocampal slices, LFS
# Protocol: Slices were transferred to an experimental chamber (2 ml), superfused (3 ml/min, at 20-22° C.) with gassed ACSF and visualized by trans-illumination with a binocular microscope (MSZ-10, Nikon, Melville, N.Y.). […] The stimulation was in the Stratum Radiatum within 100-200 μm from the recording site. The paired pulse facilitation index was calculated by ((R2−R1)/R1), where R1 and R2 were the peak amplitudes of the first and second fEPSP respectively. To generate LTP we used Theta Burst Stimulation (TBS) consisting of 5 trains of stimulus with an inter-train interval of 20 s. Each train consisted of 10 bursts at 5 Hz and each burst having 4 pulses at 100 Hz. To generate LTD we used Low Frequency Stimulation (LFS) consisting in 900 paired pulses at 1 Hz. Recordings were filtered at 2.0-3.0 kHz, sampled at 4.0 kHz using an A/D converter, and stored with pClamp 10 (Molecular Devices). Evoked postsynaptic responses were analyzed off-line, using an analysis software (pClampfit, Molecular Devices), which allowed visual detection of events, computing only those events that exceeded and arbitrary threshold.
Molecule,"FOPflash reporter activity (HEK293T cells; 10 μM, 24 h)","TOPflash reporter activity (HEK293T cells; 10 μM, 24 h)","increase of luciferase reporter over control (HEK293T cells; HEK293T, TOPflash) [fold]",speed of increase in GSK3β pSer-9 and decrease in pTyr-216 ([1]; compared to Wnt-3a treatment),time at which total levels of β-catenin increased [1] [min],Cdh-1 gene expression [2],"number of Wnt target genes specifically modulated ([2]; 9 h, of the 86 genes analyzed) [genes]","number of modulated Wnt target genes shared by both treatments ([2]; 9 h, of the 86 genes analyzed)",induction of LTD [3],"inhibition of β-catenin accumulation by Wnt antagonists sFRP and Dkk-1 ([1]; antagonist 15 min prior, 5 μM ANDRO or Wnt3a conditioned medium for 1 h)"
"O=C1Nc2cc(Br)ccc2/C1=C1/Nc2ccccc2/C1=N\O [6-B10, 6-bromoindirubin-3′-oxime, reference compound]",not in the FOPflash,significant increase in the TOPflash,~6,faster,15,does not by 6-B10,4,4,complete inhibition of the induction of LTD,–
B1,–,–,–,–,45,–,–,–,–,inhibit the accumulation of β-catenin in the presence of Wnt3a
